Source: patent US8138357B2, “Compounds and their salts specific to the PPAR receptors and the EGF receptors and their use in the medical field” (Giuliani International Limited, priority 2005, dated 2012)
Entries after “also recorded” stand apart in the source; their conditions may differ. Residues, ends and D or L forms follow the SMILES beside them. *: point of attachment. Cbz = O=C(OCc1ccccc1)*; CH2F = FC*

How the values were obtained:
PPARγ [1] = experiment: PPARγ protein expression by western blot in HT-29 cells; format: cell-based, human; settings: 30 mM, 24 hours, HT-29, relative to β-actin
Experimental: The total proteins were obtained by cell homogenization in an extraction buffer consisting of PBS with 2% Triton™, Phenyl Methyl Sulphonyl Fluoride (PMSF) 100 mM and a classical protease inhibitor cocktail (2). The total proteins were then separated by polyacrylamide gel electrophoresis and electroblotted. Polyvinylidendifluoride (PVDF) membranes were incubated overnight with rabbit polyclonal primary antibody directed against PPARγ (dilution 1/500, TEBU, Le Perray en Yveline, France). β-actin was detected using a rabbit monoclonal primary antibody diluted at 1/10,000 (Sigma). Immunodetection with a secondary peroxidase-conjugated antibody (1/1000, Dako™, Trappes, France) and chemiluminescence was performed according to the manufacturer's protocol (ECL™, Amersham Pharmacia Biotech™, Orsay, France). Optical density values of PPARγ were given for each condition in proportion to the quantity of the internal control β-actin in the same sample (2).

DLD-1 cells [2] = experiment: Cell growth by colorimetric BrdU incorporation assay, DLD-1; format: cell-based; settings: Homo sapiens, 48 hours; for inhibition at 500 µM: 0.5 mM; for inhibition at 1000 µM: 1 mM; for inhibition at 2500 µM: 2.5 mM; for inhibition at 5000 µM: 5 mM; for inhibition at 10000 µM: 10 mM
Experimental: (§1) HT-29 and DLD-1 cells were cultured in McCoy and RPMI1640 media respectively, supplemented with 10% fetal bovine serum (FBS), 1% penicillin/streptomycin (P/S) and 50 μg/ml gentamycin. HT-115 were cultured in DMEM medium supplemented with 15% FBS and 1% P/S. Cells were maintained in a humidified incubator at 37° C., in the presence of 5% CO2.
(§2) For cell growth assays, single-cell suspensions were plated at 2×10^3 cells/well (4×10^3 cells/well for HT115) in 96-well culture dishes in medium containing 0.5% FBS and allowed to adhere. The non-adherent cells were then removed, and fresh medium containing 0.5% FBS was added into each well. Cells were cultured in the presence or absence of the specified substances. Each substance was dissolved as a 25 mM stock solution in culture medium containing 0.5% FBS, and the pH of each stock solution was adjusted to 7.4, if necessary, with NaOH. Substances were used at a final concentration ranging from 0.5 to 10 mM. Cell proliferation was determined by measuring the incorporation of 5-bromo-2′-deoxyuridine (BrdU) into DNA using a commercially available cell proliferation kit (Roche Diagnostics™, Monza, Italy). BrdU was added to the cell cultures during the last 6 hours of incubation, and the level of BrdU-positive cells was assessed after 48 h culture by enzyme-linked immunosorbent assay (ELISA).
(§3) Optical density (OD) was determined at 450 nm using an ELISA reader. Experiments were performed in triplicate and the results are reported as the mean±standard deviation (SD).

HT-29, HT-115 and DLD-1 = experiment: Colon cancer cell growth by BrdU assay, three human colon carcinoma cell lines; format: cell-based; settings: for anti-proliferative effect on colon cancer cell growth (in words): 0.5-10 mM; for anti-proliferative effect on colon cancer cell growth (in words) / inhibition at 10000 µM: 48 h; for cell death following precipitates in cell cultures: colon cancer cell cultures, Example 10; for inhibition at 10000 µM: Homo sapiens, Colon carcinoma cell, final concentration 10 mM
Experimental: For this purpose, three human colon carcinoma cell lines (i.e. HT-29, HT-115 and DLD-1) were used. These cell types were selected on the basis of the cyclooxigenase-2 (COX-2) expression. Indeed, HT-115 cells express a biologically active COX-2, HT-29 cells express a non-functional COX-2 isoform, and DLD-1 are COX-2-deficient cells.
as §1, §2, §3

HT-29 STD cells [3] = experiment: Cytotoxic effect on epithelial cells seen in the HT-29 experiments; format: cell-based, human; settings: 30 mM, HT-29 cells
Experimental: (§4) HT-29 STD cells were transiently transfected using the Effectene™ transfection reagent (Qiagen™) according to instructions from the manufacturer. To test PPARγ activation, we performed transfection with 500 ng of a minimal promoter construct containing two copies of PPRE obtained from the cytochrome p450 4A (2XCYP) (1). The renilla luciferase plasmid ([…]) was also transfected as an internal control for monitoring transfection efficiency and for normalizing the firefly luciferase activity. Transfected cells were left for 48 hours incubation at 37° C. […] The pH of the drug solutions was adjusted to 7.4 with NaOH. Total cell extracts were prepared using the Passive Lysis Buffer (Promega™, Madison, Wis.). Luciferase activity was assayed in 20 μl of the extract using the Promega™ Dual Luciferase assay system according to the manufacturer's protocol. Transfections were assayed in triplicate in at least three separate experiments. The luciferase activity was expressed as fold of the activity obtained in cells treated with the different molecules divided by luciferase activity from non-stimulated cells.
After 24 h of culture, HT-29 STD cells were treated during 24 h with the new molecules 13, 14, 17, 26 and 31, at 30 mM. […] The pH of the drug solutions was adjusted to 7.4 with NaOH. Cells were fixed in PFA 4%, permeabilized in PBS containing 0.1% Triton X-100™ at 4° C. and then incubated with goat normal serum and blocking buffer (1% BSA in PBS) to minimize non-specific adsorption of the antibody.
After 24 h of culture, HT-29 STD cells were treated during 24 h with the new molecules 13, 14, 17, 26 and 31, at a concentration of 30 mM. […] The pH of the drug solutions was adjusted to 7.4 with NaOH. Cells undergoing apoptosis were identified by enzymatic labelling of DNA strands using a terminal transferase dUTP nick end labelling assay (TUNEL assay, Roche Diagnostics™, Meylan, France). Counts of at least 500 cells/sample were systematically performed blindly in one experiment. The results were expressed as the mean±SEM of the number of stained cells.

[4] = Solubility in drug solutions / culture medium; format: physicochemical; settings: for precipitates in cell cultures: colon cancer cell cultures; for solubility: drug solutions for HT-29 experiments, 30 mM, pH 7.4
PPARγ [5] = molecular target: T1, PPARγ (Homo sapiens, UniProt P37231); experiment: PPARγ activation, PPRE (2XCYP) luciferase reporter in transfected HT-29 STD cells (Example 8); format: cell-based; settings: 30 mM, 24 hours, HT-29 STD transfected with 2XCYP
T1 construct: HT-29 STD cells were transiently transfected using the Effectene™ transfection reagent; endogenous in cells; host or cells: HT-29 STD (human colon carcinoma)
T1 sequence (P37231 1-505): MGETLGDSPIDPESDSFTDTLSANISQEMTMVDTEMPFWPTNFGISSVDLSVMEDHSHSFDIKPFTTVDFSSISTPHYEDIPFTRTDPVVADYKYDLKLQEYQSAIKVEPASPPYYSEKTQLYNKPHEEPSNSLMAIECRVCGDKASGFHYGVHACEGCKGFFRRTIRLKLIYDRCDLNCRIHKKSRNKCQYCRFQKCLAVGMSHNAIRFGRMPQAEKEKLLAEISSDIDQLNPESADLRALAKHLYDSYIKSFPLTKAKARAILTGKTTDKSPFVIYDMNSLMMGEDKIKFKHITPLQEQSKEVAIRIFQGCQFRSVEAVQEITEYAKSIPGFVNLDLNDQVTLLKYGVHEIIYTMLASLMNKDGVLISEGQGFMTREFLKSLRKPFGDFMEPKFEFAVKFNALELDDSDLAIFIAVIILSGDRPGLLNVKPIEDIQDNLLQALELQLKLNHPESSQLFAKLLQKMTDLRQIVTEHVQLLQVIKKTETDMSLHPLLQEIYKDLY
Experimental: as §4

HT-29 STD cells [6] = experiment: Cell proliferation by nuclear Ki-67 immunostaining; format: cell-based; settings: Homo sapiens, 30 mM, 24 h, compared to untreated cells, read-out: inhibition of cell proliferation (Ki-67 staining)
Experimental: After 24 h of culture, HT-29 STD cells were treated during 24 h with the new molecules 13, 14, 17, 26 and 31, at 30 mM. […] The pH of the drug solutions was adjusted to 7.4 with NaOH. Cells were fixed in PFA 4%, permeabilized in PBS containing 0.1% Triton X-100™ at 4° C. and then incubated with goat normal serum and blocking buffer (1% BSA in PBS) to minimize non-specific adsorption of the antibody. Cell proliferation was assessed by a nuclear Ki-67 staining using mouse monoclonal primary antibody directed against Ki-67 (dilution 1:50 overnight; ZYMED™ Clinisciences™, Montrouge, France). […] Nuclei were stained with Hoescht 33342 solution (0.125 mg/mL) (Sigma-Aldrich™) and visualized under a fluorescence microscope (Leica™, Bensheim, Germany). Negative controls consisted of staining with a non-specific mouse serum instead of the specific antibody. Counts of at least 500 cells/sample were systematically performed blindly in one experiment. The results were expressed as the mean±SEM of the number of stained cells.

DLD-1 cells [7] = experiment: Cell death by Annexin V / propidium iodide FACS analysis; format: cell-based, human; settings: 48 hours
Experimental: The effect of the compound 14 on colon epithelial cell death was also assessed. To this end, cells were cultured as indicated above for 2 days and then the fraction of Annexin V (AV) and/or propidium iodide (PI)-positive cells was evaluated using a commercially available kit (Beckmann Coulter™, Milan, Italy). To evaluate whether the effect of the compound 14 on colon epithelial cell death was dependent on caspase activity, cells were pre-incubated with z-VAD-fmk (40 μM), a pan-caspase inhibitor, for 1 hour prior to adding the compound 14 (1.5 mM). The fraction of AV and PI-positive cells was determined after 48 hours culture as indicated above.

DLD-1 cells [8] = experiment: CFSE flow cytometry of cell proliferation; format: cell-based, human; settings: 48 hour treatment, untreated 90±4%
Experimental: To assess further the effect of the compound 14 on colon epithelial cell growth, serum-starved DLD-1 cells were incubated in 0.2 μM carboxyfluorescein diacetate succinimidyl ester (CFSE) (Invitrogen™, Milan Italy) at 37° C. for 30 minutes, then extensively washed and cultured with or without the addition of the compound. After 2 days culture, CFSE fluorescence was evaluated and the proportion of cells undergoing divisions was determined, thus allowing calculation of both precursor frequency and proliferative index.

Row | Structure (SMILES) | inhibition at 500 µM (DLD-1 cells [2]) [%] | inhibition at 1000 µM (DLD-1 cells [2]) [%] | inhibition at 2500 µM (DLD-1 cells [2]) [%] | inhibition at 5000 µM (DLD-1 cells [2]) [%] | inhibition at 10000 µM (DLD-1 cells [2]) [%] | anti-proliferative effect on colon cancer cell growth (in words) (HT-29, HT-115 and DLD-1) | cytotoxic effect on epithelial cells (HT-29 STD cells [3]) | further results
1 | CCOc1ccc(N)cc1C(=O)NO [compound 26, 5-amino-2-ethoxy-N-hydroxybenzamide] | 13.6 | 19 | 62 | 86 | 94.5 | marked anti-proliferative effect | rapid cytotoxic effect | induction of PPARγ protein levels quantified by western blot (PPARγ [1]): 2 fold
2 | CC(C)N(c1ccc(O)c(C(=O)O)c1)C(C)C [compound 38, 5-diisopropylaminosalicylic acid] | 6 | 11.1 | 51.9 | 85.9 | 94.5 | marked anti-proliferative effect; also recorded: most powerful suppressors of colon cancer cell growth | rapid cytotoxic effect | cell death following precipitates in cell cultures (HT-29, HT-115 and DLD-1): massive cell death; precipitates in cell cultures ([4]; Example 10): precipitates developed; solubility [4]: poor solubility
3 | Nc1cc2c(c(C(=O)O)c1)OCC2 [compound 17, 5-amino-2,3-dihydrobenzofuran-7-carboxylic acid] | 0 | 0 | 33.3 | 89.3 | 90.7 | marked anti-proliferative effect | – | reporter gene activity, factor of increase relative to untreated cells (PPARγ [5]): two-fold; also recorded: about twice; induction of PPARγ protein levels quantified by western blot (PPARγ [1]): 2 fold; inhibition at 30000 µM (HT-29 STD cells [6]): 67 to 75%; solubility [4]: poor solubility
4 | CC1(C)OC(=O)c2cc(N)ccc2O1 [compound 28, 6-amino-2,2-dimethyl-4H-benzo[1,3]dioxin-4-one] | – | – | – | – | – | – | – | solubility in the culture medium ([4]; culture medium, Example 10): not soluble in the culture medium
5 | COC(=O)C[C@H](NC(=O)[C@H](C)NC(=O)[C@@H](NC(=O)OCc1ccccc1)C(C)C)C(=O)CF [Z-VAD, z-VAD-fmk, reference compound] (Cbz-Val-Ala-Asp(OMe)-CH2F) | – | – | – | – | – | – | – | percentage of AV/PI-positive cells in cells treated with compound 14 (DLD-1 cells [7]; preincubation z-VAD-fmk 40 μM 1 hour, then compound 14 1.5 mM): largely reduced
6 | COc1cc(N)ccc1C(=O)NO [compound 13, 4-amino-N-hydroxy-2-methoxybenzamide] | 21.1 | 73 | 92.7 | 96.3 | 96.4 | marked anti-proliferative effect; also recorded: most powerful suppressors of colon cancer cell growth | rapid cytotoxic effects | inhibition at 10000 µM (HT-29, HT-115 and DLD-1): > 90%; cell death following precipitates in cell cultures (HT-29, HT-115 and DLD-1): massive cell death; precipitates in cell cultures ([4]; Example 10): precipitates developed
7 | COc1ccc(N)cc1C(=O)NO [compound 14, 5-amino-N-hydroxy-2-methoxybenzamide] | 22.8 | 36 | 76.5 | 90.5 | 94.1 | marked anti-proliferative effect; also recorded: most powerful suppressors of colon cancer cell growth | rapid cytotoxic effects | inhibition at 10000 µM (HT-29, HT-115 and DLD-1): > 90%; fraction of proliferating cells (DLD-1 cells [8]; 0.5 mM): 48±7%; fraction of proliferating cells (DLD-1 cells [8]; 1 mM): 21±11%; fraction of proliferating cells (DLD-1 cells [8]; 2.5 mM): 11±6%; cell death (AV and/or PI-positive cells) (DLD-1 cells [7]; 1.5 mM, p<0.01): significantly enhances DLD1 cell death; cell death (AV and/or PI-positive cells) (DLD-1 cells [7]; 3 mM, p<0.001): significantly enhances DLD1 cell death
